# Laboratory results reported in patent US10576145B2, “CD200 inhibitors and methods of use thereof” (REGENTS OF THE UNIVERSITY OF MINNESOTA, priority 2014, dated 2020).
# Entries after “also recorded” stand apart in the source; their conditions may differ.
# Key:
# [1] = system: GL261 tumor bearing mice; test: GL261 glioma model: tumor lysate vaccine +/- antagonist, tumor growth by imaging and survival; assay type: in vivo, C57BL/6 mice; settings: for Tumor growth: GL261, tumor lysate vaccine + antagonist vs tumor lysate alone or saline, weekly imaging; for Survival: GL261 glioma model, tumor lysate vaccine + antagonist
# Description: FIGS. 4A-4C. FIG. 4A) GL261 tumor bearing mice were inoculated with 50 μg of antagonist 6059 one day prior to vaccination with tumor lysate (65 μg)+/−the antagonist 6059 (50 μg). FIG. 4B) Mice were imaged weekly for tumor growth. The following groups were studied: saline (1), tumor lysate (2), and tumor lysate+6059 (3). FIG. 4C) Percent survival post inoculation for saline (1), tumor lysate (2), and tumor lysate+6059 (3) groups.
# FIGS. 5A-5B. FIG. 5A) GL261 tumor bearing mice were inoculated with 10 μg of 6059 on day 2 into the tumor site then with 50 μg of antagonist 6059 one day prior to vaccination with tumor lysate (65 μg)+the antagonist 6059 (50 μg). FIG. 5B) Mice were imaged weekly for tumor growth. The following groups were studied: saline (1), tumor lysate+6059 (2), and CNS+tumor lysate+6059 (3) groups.
# Whether vaccination with CD200R antagonists could enhance the survival of tumor-bearing mice was also studied. […] GL261 tumor bearing mice were vaccinated weekly with saline, tumor lysates (TL) or tumor lysates+an antagonist (4004, 4013, 6059).
# Tumor-bearing mice were inoculated in the brain with 10 μg of the inhibitor 6059 at the same coordinates at which the tumor was injected two days previously. This was followed by weekly injections of tumor lysate+inhibitor (FIGS. 5A-5B).
# (§1) Tumors were implanted into female C57BL/6 mice (6-8 wk old) (Jackson Laboratory) and maintained in a pathogen-free facility according to the guidelines of the University of Minnesota Animal Care and Use Committee. The GL261 orthotopic transplant model was established in C57BL/6 (B6) mice by inoculation with 15,000 GL261-Luc^+ cells in 1 μl of saline. Tumors were implanted stereotactically into the right striatum; coordinates were 2.5 mm lateral, 0.5 mm anterior of bregma, and 3 mm deep from the cortical surface of the brain^19. Tumor burden was determined by bioluminescent imaging. Light emitted from the tumors was quantified using Living Image software (Xenogen) and expressed as photons per second per centimeter squared per steradian (p/s/cm^2/sr). GL261 cells for tumor lysate vaccines were cultured in neural stem cell media consisting of DMEM/F12 (1:1) with L-glutamine, sodium bicarbonate, penicillin/streptomycin (100 U/ml), B27 and N2 supplements (Life Technologies), and 0.1 mg/ml Normocin (Invivogen). Cultures were maintained at 5% 02 and supplemented with 20 ng/ml EGF and FGF semiweekly (R&D Systems, Minneapolis, Minn.). […] Mice were euthanized when tumors reached 1000 mm^3. […] Tumor cells used to establish both models were cultured in DMEM containing 10% FBS, penicillin/streptomycin (100 U/ml), and 0.1 mg/ml Normocin (Invivogen) in atmospheric oxygen.
# Tumor lysates were prepared by dissociating tumor cells with non-enzymatic dissociation solution (Sigma). Cells were then washed 3 times with PBS, re-suspended in 500 μL PBS, and frozen overnight at −80° C. Cells were then lysed by five freeze/thaw cycles of freezing in liquid nitrogen and thawing in a 55° C. water bath. Cell debris was pelleted by centrifugation at 14,000 RCF, and the protein concentration of the supernatant was determined using a Bradford assay. Lysates were stored at −80° C. until use. Each vaccine was prepared on the day of vaccination and consisted of 65 μg of protein tumor lysate and 10 μg Poly:ICLC (Oncovir, Inc.), with or without 50 μg of the 6059 peptide antagonist, in a final volume of 100 μL injected intradermally in the back of the neck. For survival studies, vaccines were administered weekly starting three days post-tumor implantation for a total of 6 doses. In T cell priming experiments, CD8 T-cell priming experiments, animals were vaccinated intradermally on four consecutive days with 100 μg Ovalbumin (OVA) and 10 μg Poly:ICLC, and once more on day eleven^19.
# [2] = system: EMT6 tumor bearing mice; test: EMT6 breast carcinoma model: tumor lysate + CpG +/- competitive inhibitor, survival; assay type: in vivo, BALB/c mice
# Description: FIG. 6. Percent survival of mice inoculated with 1×10^6 EMT6 cells. To determine if our competitive inhibitors worked in other tumor models, mice were inoculated in the fat pad with 1×10^6 EMT6 cells. Specifically, mice were vaccinated with 65 μg of EMT6 tumor lysates+50 μg of adjuvant CpG and 50 μg of different completive inhibitors (6059, 4004, 4013 and 6061) and monitored for survival. Saline and tumor lysate+adjuvant CpG were used as controls.
# FIGS. 19A-19B. Select CD200 antagonists enhance survival. (FIG. 19A) EMT6 tumor bearing mice were vaccinated with tumor lysate, CpG+/−CD200 antagonist 4004, 4013 or 6059. […] Log-rank analysis was used for survival.
# as §1
# [3] = system: splenocytes; test: Splenocytes pulsed with OVA + antagonist, OT-1 T cells added, cytokine production by flow cytometric bead array; assay type: cell-based; settings: pulsed 24 hours, 48 hours with OT-1 T cells
# Description: FIGS. 11A-11B. Splenocytes were pulsed with OVA+an inhibitor peptide and incubated for 24 h. Following incubation, cells were washed, purified OT1 were added to wells and incubated for an additional 48 hrs then analyzed for FIG. 11A) TNFa and IL-6 production; and FIG. 11B) IL-2 and IL-17 production. Error bars indicate +/−SEM (n=4/group; *P<0.05; ** P<0.01).
# Whether the different antagonists described by Gorczynski et. al. (J Surg Res 2008; 145(1): 87-96) could modulate or reverse the suppressive effects of the tumor microenvironment was also investigated. It was concluded that different antagonists either act through different CD200R isoforms or have different biological effects on the same receptor. These conclusions were supported by experiments where splenocytes were pulsed with OVA+selected CD200R antagonists (6061, 6069, 4004, 4006, 4013) for 24 hours. The splenocytes were then washed and cultured for 48 hours with the addition of OT-1 T cells. The cultures were then assessed for cytokine production using a flow cytometric bead array. […] These experiments support the hypothesis that exosomes express the CD200 protein thereby inhibiting the ability to prime a T cell response in the draining lymph nodes of glioma bearing mice. Other antagonists were similarly evaluated.
# [4] = system: mice; test: MDSC expansion in blood of mice vaccinated with tumor lysate + CpG +/- inhibitor; assay type: in vivo; settings: tumor lysate+CpG+inhibitor vs tumor lysate+CpG, listed as P1A12
# Description: FIG. 23. […] Mice were vaccinated as described in FIG. 4 with peptide inhibitor P1A12. Blood from mice vaccinated with tumor lysate+CpG or tumor lysate+CpG+inhibitor were analyzed for MDSC expansion.
# (§2) Mice were vaccinated as described in FIGS. 4A-4C with peptide inhibitor P1A12. Blood from mice vaccinated with tumor lysate+CpG or tumor lysate+CpG+inhibitor were analyzed for MDSC expansion (FIG. 23). […] CD11b cells isolated for wild type or CD200 receptor knock out mice were pulsed with OVA+Poly:ICLC+/−P1A12 inhibitor, and scrambled inhibitor was used as a control (FIG. 24). Cells were washed and OT-I Cells were added. Supernatants were analyzed for IFN gamma following 48 hour incubation.
# [5] = system: CD200 receptor; test: CD11b cells of wild type or CD200 receptor knock out mice pulsed with OVA+Poly:ICLC +/- P1A12, OT-I cells added, IFN gamma; assay type: cell-based; settings: wild type vs CD200 receptor knock out CD11b cells, 48 hour incubation; listed as P1A12
# Description: FIG. 24. […] CD11b cells isolated for wild type or CD200 receptor knock out mice were pulsed with OVA+Poly:ICLC+/−P1A12 inhibitor. Scrambled inhibitor was use as a control. Cells were washed and OT-I Cells were added. A. Supernatants were analyzed for IFN gamma following 48 hour incubation.
# as §2
Sequence,Tumor growth [1],Survival [2],"Cytokine profile (TNFa, IL-6, IL-2, IL-17) [3]",also measured
LFNTFGSQKVSGT [Antagonist 4013],tumors grow faster in mice vaccinated with saline or tumor lysate alone compared to mice vaccinated with tumor lysate plus an antagonist,results translated to a breast carcinoma (EMT6) model; also recorded: enhanced survival benefit; also recorded: significantly extended survival benefit,–,–
RCSLKTSQE [Antagonist 6061],–,significantly extended survival benefit,–,–
SQKVSGTACLTLY [Antagonist 4006],–,–,different cytokine profiles,–
TASLRCSLKTSQE [Antagonist 4004],tumors grow faster in mice vaccinated with saline or tumor lysate alone compared to mice vaccinated with tumor lysate plus an antagonist,results translated to a breast carcinoma (EMT6) model; also recorded: enhanced survival benefit; also recorded: significantly extended survival benefit,different cytokine profiles,–
VTWQKKKAVSPANM [Antagonist C-A12],–,–,–,Survival [1]: even greater survival; Survival ([1]; listed as P1-A12): enhances survival; MDSC expansion in vivo [4]: inhibits MDSC expansion in vivo; Action on the CD200 receptor (IFN gamma in supernatants) [5]: acts as an agonist for the CD200 receptor
